From patent US11648248B1 (King Abdulaziz University, priority 2022, dated 2023)

Key:
[1] = tested on: Gram-positive bacteria; assay: Bacteriostatic or bactericidal by MBC versus MIC; assay type: cell-based; settings: MBC less than or at least three-fold the MIC
Excerpt: Based upon the initial results obtained, the active compounds were further screened against additional clinical isolates of methicillin-sensitive S. aureus (MSSA), methicillin-resistant S. aureus (MRSA), vancomycin-resistant S. aureus (VRSA), Staphylococcus epidermidis, vancomycin-resistant Enterococcus faecium (VRE), vancomycin-resistant Enterococcus faecalis (VRE) and Streptococcus pneumoniae, as presented in Table 2. Additionally, we examined whether the compounds were bacteriostatic (inhibit bacteria from growing) or bactericidal (kill bacteria) by determining the minimum bactericidal concentration (MBC). The MBC was determined by plating 5 μL from each well where no growth was present (in the MIC plates) onto tryptic soya agar plates and incubating plates at 37° C. for 24 hours. The MBC was categorized as the lowest concentration that generated a 99.9% reduction in bacterial colony-forming units (Table 3).

[2] = tested on: Gram-positive strains; assay: Relative MIC compared to reference drugs (FIG. 3); assay type: cell-based
Excerpt: FIG. 3. Relative MIC of MY31 compared to reference drugs.
For instance, it stopped the growth of VRSA strains with more potency than sorafenib (the prototype) and, as expected, much higher than vancomycin. […] Material and Methods

| Structure (SMILES) | bacteriostatic or bactericidal (MBC compared with MIC) [1] | bacteriostatic activity relative to tested compounds and positive control antibiotics [2] |
| --- | --- | --- |
| O=C(Nc1ccc(-c2ccc(=O)[nH]n2)cc1)Nc1ccc(Cl)c(Cl)c1 [MY21, 1-(3,4-dichlorophenyl)-3-(4-(6-oxo-1,6-dihydropyridazin-3-yl)phenyl)urea] | bactericidal |  |
| O=C(Nc1ccc(Oc2ccc(=O)[nH]n2)cc1)Nc1ccc(Cl)c(Cl)c1 [MY24, 1-(3,4-dichlorophenyl)-3-(4-((6-oxo-1,6-dihydropyridazin-3-yl)oxy)phenyl)urea] | bacteriostatic |  |
| O=C(Nc1ccc(Oc2ccc(=O)[nH]n2)cc1)Nc1ccc(Cl)c(C(F)(F)F)c1 [MY31, 1-(4-chloro-3-(trifluoromethyl)phenyl)-3-(4-((6-oxo-1,6-dihydropyridazin-3-yl)oxy)phenyl)urea] | bacteriostatic | highest bacteriostatic activity among the tested compounds |
